Laboratory results reported in US12622910B2, “Inhibitors of Bruton's tyrosine kinase and methods of their use” (Janssen Pharmaceutica NV, priority 2021, dated 2026).
pIC50: −log10 of the molar value.

Assays:
[1] = Plasma protein binding, equilibrium dialysis; type: in vitro ADME, Sprague Dawley rat
Procedure: Additional Data on Preclinical PK Profile—Protein binding of the compound of Formula (III) was studied using an equilibrium dialysis method in plasma from human, cynomolgus monkey, beagle dog, Sprague Dawley rat, CD-1 mouse, and guinea pig at 0.25, 2.5, and 25 μM. […] In human and monkey, the plasma protein binding was concentration dependent. […] Free fraction of the compound of Formula (III) in liver microsomes from various species ranged from 75.1% to 87.9% at 0.25 mg/mL and from 58.9% to 86.5% at 1.0 mg/mL (Table 17). […] In hepatocytes, the compound of Formula (III) turnover followed a similar trend, with T1/2 ranging from 75.3 minutes in monkey to 278.1 minutes in human.

CYP2E1 = molecular target: T1, CYP2E1 (Homo sapiens, UniProt P05181); test: CYP inhibition in human liver microsomes; type: in vitro ADME; conditions: probe Chlorzoxazone
T1 construct: with specific CYP probe substrates in human liver microsomes; from tissue; host or cells: human liver microsomes
Procedure: (§1) The potential of the compound of Formula (III) to inhibit human CYP450s in vitro was investigated up to test concentrations of 50 μM by incubating the compound of Formula (III) with specific CYP probe substrates in human liver microsomes and measuring probe metabolite formation.

CYP2C9 = molecular target: T2, CYP2C9 (Homo sapiens, UniProt P11712); test: CYP inhibition in human liver microsomes; type: in vitro ADME
T2 construct: with specific CYP probe substrates in human liver microsomes; from tissue; host or cells: human liver microsomes
Procedure: as §1

CYP2B6 = molecular target: T3, CYP2B6 (Homo sapiens, UniProt P20813); test: CYP inhibition in human liver microsomes; type: in vitro ADME; conditions: probe Bupropion
T3 construct: with specific CYP probe substrates in human liver microsomes; from tissue; host or cells: human liver microsomes
Procedure: as §1

CYP3A4 [2] = molecular target: T4, CYP3A4 (Homo sapiens, UniProt P08684); test: CYP inhibition in human liver microsomes; type: in vitro ADME
T4 construct: with specific CYP probe substrates in human liver microsomes; from tissue; host or cells: human liver microsomes
Procedure: as §1

CYP2A6 = molecular target: T5, CYP2A6 (Homo sapiens, UniProt P11509); test: CYP inhibition in human liver microsomes; type: in vitro ADME; conditions: probe Coumarin
T5 construct: with specific CYP probe substrates in human liver microsomes; from tissue; host or cells: human liver microsomes
Procedure: as §1

CYP2C19 = molecular target: T6, CYP2C19 (Homo sapiens, UniProt P33261); test: CYP inhibition in human liver microsomes; type: in vitro ADME; conditions: probe S-Mephenytoin
T6 construct: with specific CYP probe substrates in human liver microsomes; from tissue; host or cells: human liver microsomes
Procedure: as §1

CYP1A2 = molecular target: T7, CYP1A2 (Homo sapiens, UniProt P05177); test: CYP inhibition in human liver microsomes; type: in vitro ADME; conditions: probe Phenacetin
T7 construct: with specific CYP probe substrates in human liver microsomes; from tissue; host or cells: human liver microsomes
Procedure: as §1

CYP2C8 = molecular target: T8, CYP2C8 (Homo sapiens, UniProt P10632); test: CYP inhibition in human liver microsomes; type: in vitro ADME; conditions: probe Amodiaquine
T8 construct: with specific CYP probe substrates in human liver microsomes; from tissue; host or cells: human liver microsomes
Procedure: as §1

CYP2D6 = molecular target: T9, CYP2D6 (Homo sapiens, UniProt P10635); test: CYP inhibition in human liver microsomes; type: in vitro ADME; conditions: probe Dextromethorphan
T9 construct: with specific CYP probe substrates in human liver microsomes; from tissue; host or cells: human liver microsomes
Procedure: as §1

[3] = Intestinal microsomal stability; type: in vitro ADME; conditions: intestinal microsomes
Source text: In human hepatocytes, the compound of Formula (III) is metabolized by CYP3A through mono-oxidations and N-dealkylations and by GSH conjugation to its acrylamide functionality. It bears moderate metabolic stability in hepatocytes across species and is slowly metabolized in human intestinal microsomes fortified with NADPH.

CYP3A4 [4] = molecular target: T4, CYP3A4; test: Chemical inhibition of turnover in pooled human liver microsomes (ketoconazole); type: in vitro ADME; conditions: 1 μM, HLM 0.5 mg/mL
BTK = BTK (Homo sapiens, UniProt Q06187); test: BTK protein occupancy in OCI-LY10 tumor lysates of NSG mice; type: in vivo; set-up: free BTK protein in OCI-LY10 DLBCL tumor lysates harvested using an BTK occupancy assay; endogenous in cells; host or cells: OCI-LY10 human ABC-DLBCL cells grown as SC xenograft in NSG mice; tumour lysates; conditions: for receptor occupancy at 10 mg/kg / receptor occupancy at 30 mg/kg / receptor occupancy at 100 mg/kg: OCI-Ly10, mouse
Procedure: FIG. 19 depicts BTK protein occupancy in OCI-LY10 ABC-DLBCL tumor lysates of NSG mice treated with the compound of Formula (III). Unoccupied BTK protein levels are graphed as % normalized to vehicle control BTK levels ±SEM. Female mice were implanted SC on the right flank on day 0. Tumors were established 39 days post implantation, randomized into experimental groups and dosed orally with a single dose (n=5/dose level/time point). Tumor samples were harvested 4, 12 and 24 hours after compound administration.
To evaluate the duration of signaling shutdown and occupancy of BTK protein after compound administration, we determined the amount of free BTK protein in OCI-LY10 DLBCL tumor lysates harvested using an BTK occupancy assay. […] BTK protein occupancy levels remained high with 71%, 94% and 96%, respectively, at 12 hours and 70%, 91% and 85%, respectively after 24 hours. (FIG. 19). The antitumor efficacy of compound of Formula (III) was assessed in mice bearing established SC OCI-LY10 human CD79b mutant DLBCL xenografts in female NSG mice, dosed either once (QD) or twice (BID) a day. Analysis of tumor growth inhibition was performed 14 days into the 21-day treatment period (Day 45) as that was the last day when 2/3 of the vehicle controls remained on the study. Compound of Formula (III) induced tumor growth inhibition in the OCI-LY10 model at all dose levels. […] Taken together, the in vivo data support a first in-human trial of the compound of Formula (III) in combination with Venetoclax in patients with B cell lymphomas.

T4 sequence (P08684 whole entry): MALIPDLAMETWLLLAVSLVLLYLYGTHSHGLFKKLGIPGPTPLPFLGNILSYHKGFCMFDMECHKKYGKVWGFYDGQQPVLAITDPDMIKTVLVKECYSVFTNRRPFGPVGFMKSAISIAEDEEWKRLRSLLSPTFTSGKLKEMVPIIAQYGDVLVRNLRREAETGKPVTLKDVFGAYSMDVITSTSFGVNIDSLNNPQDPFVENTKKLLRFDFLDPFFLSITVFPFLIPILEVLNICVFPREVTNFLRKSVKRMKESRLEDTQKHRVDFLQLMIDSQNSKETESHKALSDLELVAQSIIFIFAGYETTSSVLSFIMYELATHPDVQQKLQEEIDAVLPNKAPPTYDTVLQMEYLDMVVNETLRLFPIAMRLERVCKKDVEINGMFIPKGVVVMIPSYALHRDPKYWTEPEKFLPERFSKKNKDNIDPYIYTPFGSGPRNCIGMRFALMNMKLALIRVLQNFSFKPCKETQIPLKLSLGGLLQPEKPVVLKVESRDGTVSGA
Sequence of BTK (Q06187 whole entry): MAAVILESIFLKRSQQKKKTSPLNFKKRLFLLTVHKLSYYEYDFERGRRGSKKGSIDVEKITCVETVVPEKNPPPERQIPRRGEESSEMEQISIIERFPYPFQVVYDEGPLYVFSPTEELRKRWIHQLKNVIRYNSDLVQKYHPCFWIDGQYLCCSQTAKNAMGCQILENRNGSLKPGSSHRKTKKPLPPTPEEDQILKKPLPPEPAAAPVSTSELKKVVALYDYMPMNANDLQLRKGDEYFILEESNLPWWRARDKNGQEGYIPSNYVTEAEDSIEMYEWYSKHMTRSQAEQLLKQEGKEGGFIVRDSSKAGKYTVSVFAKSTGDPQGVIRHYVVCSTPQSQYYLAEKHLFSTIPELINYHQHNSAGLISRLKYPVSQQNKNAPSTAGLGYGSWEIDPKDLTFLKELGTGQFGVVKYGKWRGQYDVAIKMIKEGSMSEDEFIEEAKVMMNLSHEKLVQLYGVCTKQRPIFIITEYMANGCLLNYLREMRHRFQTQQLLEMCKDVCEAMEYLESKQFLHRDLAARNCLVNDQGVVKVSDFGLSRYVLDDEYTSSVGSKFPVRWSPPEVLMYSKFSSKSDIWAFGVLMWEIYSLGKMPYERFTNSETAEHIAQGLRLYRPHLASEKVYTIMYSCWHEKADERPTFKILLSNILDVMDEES
T2 sequence (P11712 whole entry): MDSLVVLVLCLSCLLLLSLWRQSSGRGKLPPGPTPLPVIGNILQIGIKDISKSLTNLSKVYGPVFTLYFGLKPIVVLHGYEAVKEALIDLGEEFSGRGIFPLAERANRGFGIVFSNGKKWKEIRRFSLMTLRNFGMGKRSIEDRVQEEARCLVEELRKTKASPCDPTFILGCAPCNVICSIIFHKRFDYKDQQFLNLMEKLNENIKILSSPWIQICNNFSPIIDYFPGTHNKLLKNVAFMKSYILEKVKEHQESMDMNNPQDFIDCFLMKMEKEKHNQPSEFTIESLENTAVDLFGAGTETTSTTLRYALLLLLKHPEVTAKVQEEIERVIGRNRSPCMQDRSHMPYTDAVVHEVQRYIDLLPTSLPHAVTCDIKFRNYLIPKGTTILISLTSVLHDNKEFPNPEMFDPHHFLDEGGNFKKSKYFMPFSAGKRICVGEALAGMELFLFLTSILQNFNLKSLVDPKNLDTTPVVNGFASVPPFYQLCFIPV
T8 sequence (P10632 whole entry): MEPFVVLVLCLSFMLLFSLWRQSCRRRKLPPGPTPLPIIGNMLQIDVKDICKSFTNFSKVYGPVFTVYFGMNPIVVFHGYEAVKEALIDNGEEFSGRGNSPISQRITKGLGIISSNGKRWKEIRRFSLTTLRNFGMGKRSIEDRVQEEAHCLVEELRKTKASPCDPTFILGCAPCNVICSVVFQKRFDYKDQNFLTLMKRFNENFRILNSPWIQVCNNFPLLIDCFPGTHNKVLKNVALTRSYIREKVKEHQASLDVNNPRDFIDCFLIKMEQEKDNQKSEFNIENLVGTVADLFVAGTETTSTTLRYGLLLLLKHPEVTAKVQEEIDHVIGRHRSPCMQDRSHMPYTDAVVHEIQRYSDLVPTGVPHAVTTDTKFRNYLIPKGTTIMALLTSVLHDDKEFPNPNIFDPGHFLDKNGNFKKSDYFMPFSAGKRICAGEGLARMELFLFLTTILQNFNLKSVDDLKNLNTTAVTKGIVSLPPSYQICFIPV
T3 sequence (P20813 whole entry): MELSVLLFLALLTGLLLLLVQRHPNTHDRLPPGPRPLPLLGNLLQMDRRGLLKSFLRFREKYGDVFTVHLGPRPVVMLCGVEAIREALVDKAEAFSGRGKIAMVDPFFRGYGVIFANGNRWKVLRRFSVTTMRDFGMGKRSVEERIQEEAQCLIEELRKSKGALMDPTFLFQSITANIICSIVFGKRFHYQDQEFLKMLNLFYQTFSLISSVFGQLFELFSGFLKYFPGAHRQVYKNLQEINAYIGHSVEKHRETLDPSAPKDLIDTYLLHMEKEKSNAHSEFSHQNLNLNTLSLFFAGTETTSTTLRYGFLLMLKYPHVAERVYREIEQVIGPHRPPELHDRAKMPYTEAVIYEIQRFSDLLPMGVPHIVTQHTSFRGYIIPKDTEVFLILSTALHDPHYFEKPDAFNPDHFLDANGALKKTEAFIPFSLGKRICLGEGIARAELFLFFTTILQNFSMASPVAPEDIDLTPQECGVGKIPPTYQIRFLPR
T1 sequence (P05181 whole entry): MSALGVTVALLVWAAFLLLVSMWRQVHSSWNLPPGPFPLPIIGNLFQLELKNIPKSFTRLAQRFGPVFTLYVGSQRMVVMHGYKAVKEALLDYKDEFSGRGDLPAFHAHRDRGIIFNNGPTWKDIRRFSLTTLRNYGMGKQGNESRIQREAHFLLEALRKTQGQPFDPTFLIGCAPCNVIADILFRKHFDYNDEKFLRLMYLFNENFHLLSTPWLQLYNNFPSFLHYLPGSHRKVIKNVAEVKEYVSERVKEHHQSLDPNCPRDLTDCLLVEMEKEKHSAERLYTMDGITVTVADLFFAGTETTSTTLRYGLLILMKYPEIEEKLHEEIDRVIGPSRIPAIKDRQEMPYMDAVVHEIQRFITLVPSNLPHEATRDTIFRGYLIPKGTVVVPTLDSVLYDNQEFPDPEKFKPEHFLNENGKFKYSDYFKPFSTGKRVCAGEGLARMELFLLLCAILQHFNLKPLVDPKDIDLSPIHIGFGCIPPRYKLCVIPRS
T7 sequence (P05177 whole entry): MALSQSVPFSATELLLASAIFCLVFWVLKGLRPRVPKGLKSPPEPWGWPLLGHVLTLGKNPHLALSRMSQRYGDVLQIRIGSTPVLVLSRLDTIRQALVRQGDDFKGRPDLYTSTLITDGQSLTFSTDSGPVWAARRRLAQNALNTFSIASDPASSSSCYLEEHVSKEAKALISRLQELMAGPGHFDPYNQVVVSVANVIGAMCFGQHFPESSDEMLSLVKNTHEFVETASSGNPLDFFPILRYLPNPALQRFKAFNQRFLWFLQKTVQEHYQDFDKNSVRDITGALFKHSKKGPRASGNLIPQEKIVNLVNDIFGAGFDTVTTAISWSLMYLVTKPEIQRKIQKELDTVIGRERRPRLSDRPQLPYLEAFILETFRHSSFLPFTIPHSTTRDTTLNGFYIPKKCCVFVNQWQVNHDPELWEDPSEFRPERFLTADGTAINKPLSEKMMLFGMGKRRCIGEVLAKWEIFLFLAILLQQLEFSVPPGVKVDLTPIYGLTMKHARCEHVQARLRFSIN
T6 sequence (P33261 whole entry): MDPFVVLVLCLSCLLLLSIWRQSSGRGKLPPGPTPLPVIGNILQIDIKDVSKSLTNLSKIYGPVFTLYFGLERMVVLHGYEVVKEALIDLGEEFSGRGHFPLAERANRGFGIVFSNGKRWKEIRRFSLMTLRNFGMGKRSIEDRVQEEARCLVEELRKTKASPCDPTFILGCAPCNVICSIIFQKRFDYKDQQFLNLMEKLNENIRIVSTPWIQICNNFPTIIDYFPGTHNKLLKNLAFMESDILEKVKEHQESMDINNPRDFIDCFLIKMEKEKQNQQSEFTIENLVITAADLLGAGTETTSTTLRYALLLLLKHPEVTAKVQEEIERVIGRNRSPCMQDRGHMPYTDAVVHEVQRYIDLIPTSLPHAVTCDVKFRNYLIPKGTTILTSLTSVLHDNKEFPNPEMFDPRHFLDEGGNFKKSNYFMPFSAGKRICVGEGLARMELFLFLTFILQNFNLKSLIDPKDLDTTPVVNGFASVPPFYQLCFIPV
T9 sequence (P10635 whole entry): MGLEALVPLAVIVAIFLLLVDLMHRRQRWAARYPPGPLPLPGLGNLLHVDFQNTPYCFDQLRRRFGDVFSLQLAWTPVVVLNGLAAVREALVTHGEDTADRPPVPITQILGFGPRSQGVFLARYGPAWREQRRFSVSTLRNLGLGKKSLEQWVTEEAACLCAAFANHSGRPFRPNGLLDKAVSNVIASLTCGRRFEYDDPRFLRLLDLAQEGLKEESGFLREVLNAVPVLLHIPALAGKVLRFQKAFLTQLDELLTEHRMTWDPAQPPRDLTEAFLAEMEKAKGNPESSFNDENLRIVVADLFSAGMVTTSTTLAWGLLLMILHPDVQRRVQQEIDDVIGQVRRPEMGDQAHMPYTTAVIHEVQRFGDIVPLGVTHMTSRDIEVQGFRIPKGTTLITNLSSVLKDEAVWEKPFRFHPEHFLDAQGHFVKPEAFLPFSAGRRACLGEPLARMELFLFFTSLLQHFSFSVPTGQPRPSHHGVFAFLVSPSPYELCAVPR

Compound: C=CC(=O)N[C@H]1CCC[C@H]1NC(=O)c1sc2nccc3c2c1NC(=O)N3c1cnc(CC(C)C)cc1C (atropisomer, axis not shown) [compound of Formula (III), N-((1R,2S)-2-Acrylamidocyclopentyl)-5-(S)-(6-isobutyl-4-methylpyridin-3-yl)-4-oxo-4,5-dihydro-3H-1-thia-3,5,8-triazaacenaphthylene-2-carboxamide]
- % Free in plasma ([1]; 0.25 μM): 3.73%
- fraction unbound at 2.5 μM ([1]; Sprague Dawley, rat, plasma, 2.5 μM, read-out: % Free in plasma): 0.0365
- fraction unbound at 25 μM ([1]; Sprague Dawley, rat, plasma, 25 μM, read-out: % Free in plasma): 0.0405
- pIC50 (CYP2E1): < 4.30
- pIC50 (CYP2C9; probe Diclofenac): 5.52
- pIC50 (CYP2C9; probe Tolbutamide): 5.28
- pIC50 (CYP2B6): < 4.30
- pIC50 (CYP3A4 [2]; probe Midazolam): 4.60
- pIC50 (CYP3A4 [2]; probe Nifedipine): < 4.30
- pIC50 (CYP3A4 [2]; probe Testosterone): 4.40
- pIC50 (CYP2A6): < 4.30
- pIC50 (CYP2C19): < 4.30
- pIC50 (CYP1A2): < 4.30
- pIC50 (CYP2C8): 4.80
- pIC50 (CYP2D6): 4.59
- microsomal CLint ([3]; Sprague Dawley, rat): < 3.9 µL/min/mg
- microsomal CLint ([3]; beagle, dog): < 3.9 µL/min/mg
- microsomal CLint ([3]; human): 14.1 µL/min/mg
- inhibition of turnover by ketoconazole (CYP3A4 [4]): > 97%
- BTK protein occupancy in tumor (BTK; 1 mg/kg): No BTK occupancy
- BTK protein occupancy in tumor (BTK; 3 mg/kg): No BTK occupancy
- receptor occupancy at 10 mg/kg (BTK; 4 hours): 54%
- receptor occupancy at 10 mg/kg (BTK; 12 hours): 71%
- receptor occupancy at 10 mg/kg (BTK; 24 hours): 70%
- receptor occupancy at 30 mg/kg (BTK; 4 hours): 90%
- receptor occupancy at 30 mg/kg (BTK; 12 hours): 94%
- receptor occupancy at 30 mg/kg (BTK; 24 hours): 91%
- receptor occupancy at 100 mg/kg (BTK; 4 hours): 95%
- receptor occupancy at 100 mg/kg (BTK; 12 hours): 96%
- receptor occupancy at 100 mg/kg (BTK; 24 hours): 85%
